Results reported in article PMC6893898, “Receptor Interaction Profiles of 4-Alkoxy-Substituted 2,5-Dimethoxyphenethylamines and Related Amphetamines” (Frontiers in Pharmacology, 2019).

What was measured:
human 5-HT2B receptor = target: T1, human 5-HT2B receptor (Homo sapiens, UniProt P41595); assay: Activity at the 5-HT2B receptor (FLIPR calcium, HEK 293 cells); assay type: cell-based; details: for Emax: HEK293, relative to 5-HT = 100%, read-out: h5-HT2B Activation efficacy max ± SD
T1 construct: expressed in transfected cells; host or cells: HEK 293
T1 sequence (P41595 whole entry): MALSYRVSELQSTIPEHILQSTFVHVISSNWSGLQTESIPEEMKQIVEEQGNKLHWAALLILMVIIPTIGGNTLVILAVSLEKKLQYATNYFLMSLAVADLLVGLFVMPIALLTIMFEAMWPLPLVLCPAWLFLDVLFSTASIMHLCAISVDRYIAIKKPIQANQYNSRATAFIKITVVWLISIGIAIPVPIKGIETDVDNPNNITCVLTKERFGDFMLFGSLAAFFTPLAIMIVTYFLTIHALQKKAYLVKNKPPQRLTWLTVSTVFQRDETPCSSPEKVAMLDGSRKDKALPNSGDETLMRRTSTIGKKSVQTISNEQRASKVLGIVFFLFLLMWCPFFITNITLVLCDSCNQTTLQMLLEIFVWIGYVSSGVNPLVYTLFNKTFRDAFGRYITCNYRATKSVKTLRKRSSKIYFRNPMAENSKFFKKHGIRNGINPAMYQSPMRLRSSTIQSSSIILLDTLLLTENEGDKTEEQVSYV
Protocol: Activity at the 5-HT2B receptor was examined as previously described ([Luethi et al., 2018]). In summary, HEK 293 cells expressing the human 5-HT2B receptor were seeded at a density of 50,000 cells per well in 96-well poly-D-lysine-coated plates overnight at 37°C. The cells were then incubated in growth medium consisting of high glucose Dulbecco’s modified Eagle’s medium (DMEM) (Invitrogen, Zug, Switzerland), 10% fetal calf serum (non-dialyzed, heat-inactivated), 250 mg/l Geneticin and 10 ml/l PenStrep (Gibco), overnight at 37°C. After removal of the growth medium via snap inversion, calcium indicator Fluo-4-solution (100 µl) was injected into each well (Molecular Probes, Eugene, OR, USA) and incubated for 45 min at 31°C. Afterwards, the Fluo-4 solution was removed (snap inversion) and a further 100 µl of the Fluo-4 solution was added and incubated (45 min, 31°C). Thereafter, using the EMBLA cell washer, the cells were washed just before testing with HBSS and 20 mM HEPES and exposed to 100 µl of assay buffer. The well plate was positioned in the FLIPR and while online, 25 µl of the test compounds diluted in assay buffer were added. Concentration-response curves were calculated using nonlinear regression, and EC50 values were obtained. The maximal activity at the receptors was calculated relative to 5-HT activity which was defined as 100%.

human TAAR1 = target: T2, human TAAR1 (Homo sapiens, UniProt Q96RJ0); assay: Activity at the human TAAR1 (cAMP, HEK 293 cells); assay type: cell-based; details: human TAAR1 EC50 ± SD
T2 construct: expressed in transfected cells; host or cells: HEK 293 (recombinant, Geneticin/hygromycin B selection)
T2 sequence (Q96RJ0 1-339): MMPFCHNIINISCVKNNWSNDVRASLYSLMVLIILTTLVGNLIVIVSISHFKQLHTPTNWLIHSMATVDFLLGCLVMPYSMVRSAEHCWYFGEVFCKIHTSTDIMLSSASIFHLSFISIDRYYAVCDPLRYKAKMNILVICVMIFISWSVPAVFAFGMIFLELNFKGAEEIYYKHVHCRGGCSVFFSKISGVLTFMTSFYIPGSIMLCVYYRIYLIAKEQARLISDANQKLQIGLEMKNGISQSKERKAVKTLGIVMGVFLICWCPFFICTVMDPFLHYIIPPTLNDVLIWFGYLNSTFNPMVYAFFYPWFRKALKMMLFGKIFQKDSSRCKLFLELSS
Protocol: Activity at the human TAAR1 was examined as previously described in full detail ([Luethi et al., 2018]). In summary, human TAAR1 expressing recombinant HEK 293 cells were grown in 250 ml falcon culture flasks containing 30 ml of high glucose DMEM (10% heat inactivated fetal calf serum, 500 µg/ml Geneticin [Gibco, Zug, Switzerland] and 500 µg/ml hygromycin B) at 37°C and 5% CO2/95% air. At 80-90% confluency, the cells were collected. The medium was aspirated, cells were washed with phosphate-buffered saline (PBS) and then trypsinized for 5 min at 37°C with 5 ml of trypsin/EDTA solution. Next, 45 ml of medium was added and the mixture was transferred into a falcon tube. After centrifugation (900 rpm, 3 min, RT), the supernatant was aspirated and the remaining cell pellet was resuspended in fresh medium to […]. Using a multipipette, 100 µl of cells were transferred (80,000 cells/well) into a 96-well plate (BIOCOAT 6640, Becton Dickinson, Allschwil, Switzerland) and incubated for 20 h at 37°C. For the cAMP assay, the medium was aspirated replaced with 50 µL PBS without Ca^2+ and Mg^2+ ions. The PBS was then extracted using snap inversion and the plate was softly tapped against tissue; 90 µL of Krebs-Ringer Bicarbonate buffer (Sigma-Aldrich) containing 1 mM IBMX was added and incubated for 60 min at 37°C and 5% CO2/95% air. A concentration range between 300 pM and 30 µM of test compounds was examined in duplicate. A standard curve with a range of cAMP concentrations (0.13 nM to 10 µM) was created per 96-well plate. Each experiment was accompanied with a reference plate that included three compounds; RO5256390, β-phenylethylamine, and p-tyramine. The cells were exposed to either 30 µl of compound solution, 30 µl of β-phenylethylamine (as maximal response), or a basal control in PBS (containing 1 mM IBMX) for 40 min at 37°C. Next, under forceful shaking using black lids, the cells were exposed to 50 µl of 3x detection mix solution (composed of Ru-cAMP Alexa700 anti-cAMP antibody and lysis buffer) for 120 min at room temperature in order to lyse the cells. Using the NanoScan reader (Innovative Optische Messtechnik, Berlin, Germany; 456 nm excitation wavelength; 630 and 700 nm emission wavelengths), the fluorescence was examined and the fluorescence resonance energy transfer (FRET) signal was determined using the following equation; FRET (700 nm) − P × FRET (630 nm), where P = Ru (700 nm)/Ru (630 nm). Receptor binding affinity at the human TAAR1 was not determined since unfortunately, there are no suitable radioligands available for this receptor.
Functional activity of the derivatives was only examined at the human TAAR1 and not at the mouse and rat TAAR1, because functional assays are not set up.

rat TAAR1 = target: T3, rat TAAR1 (Rattus norvegicus, UniProt Q923Y9); assay: Radioligand binding, rat TAAR1 ([3H]RO5166017)
T3 construct: expressed in transfected cells; host or cells: HEK 293 (membrane preparation)
T3 sequence (Q923Y9 whole entry): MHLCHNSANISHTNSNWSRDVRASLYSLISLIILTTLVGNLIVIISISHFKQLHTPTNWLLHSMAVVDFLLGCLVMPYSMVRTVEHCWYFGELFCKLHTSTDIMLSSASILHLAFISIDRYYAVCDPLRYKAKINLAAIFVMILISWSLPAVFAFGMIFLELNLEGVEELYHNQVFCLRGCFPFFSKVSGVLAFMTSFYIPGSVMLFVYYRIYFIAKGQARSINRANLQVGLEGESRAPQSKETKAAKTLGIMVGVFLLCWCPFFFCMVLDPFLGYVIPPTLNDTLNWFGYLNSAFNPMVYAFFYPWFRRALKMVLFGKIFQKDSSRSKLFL

dopaminergic D2 receptor = target: T4, dopaminergic D2 receptor (Homo sapiens, UniProt P14416); assay: Radioligand binding, dopaminergic D2 receptor ([3H]spiperone)
T4 construct: expressed in transfected cells; host or cells: HEK 293 (membrane preparation)
T4 sequence (P14416 whole entry): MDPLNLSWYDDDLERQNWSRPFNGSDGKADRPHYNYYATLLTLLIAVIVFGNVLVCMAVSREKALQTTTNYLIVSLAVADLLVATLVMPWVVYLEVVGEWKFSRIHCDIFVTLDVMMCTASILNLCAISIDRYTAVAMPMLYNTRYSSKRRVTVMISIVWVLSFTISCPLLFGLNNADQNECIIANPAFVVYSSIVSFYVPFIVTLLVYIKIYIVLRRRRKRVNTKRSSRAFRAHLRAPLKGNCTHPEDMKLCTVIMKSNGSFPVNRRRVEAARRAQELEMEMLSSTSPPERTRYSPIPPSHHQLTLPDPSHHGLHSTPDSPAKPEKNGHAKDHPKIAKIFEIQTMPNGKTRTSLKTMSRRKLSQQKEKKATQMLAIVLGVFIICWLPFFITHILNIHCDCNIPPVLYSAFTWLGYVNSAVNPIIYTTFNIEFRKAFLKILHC

hDAT = hDAT (Homo sapiens, UniProt Q01959); assay: Radioligand binding, DAT ([3H]WIN35,428); set-up: expressed in transfected cells; host or cells: HEK 293 (membrane preparation)
Sequence of hDAT (Q01959 whole entry): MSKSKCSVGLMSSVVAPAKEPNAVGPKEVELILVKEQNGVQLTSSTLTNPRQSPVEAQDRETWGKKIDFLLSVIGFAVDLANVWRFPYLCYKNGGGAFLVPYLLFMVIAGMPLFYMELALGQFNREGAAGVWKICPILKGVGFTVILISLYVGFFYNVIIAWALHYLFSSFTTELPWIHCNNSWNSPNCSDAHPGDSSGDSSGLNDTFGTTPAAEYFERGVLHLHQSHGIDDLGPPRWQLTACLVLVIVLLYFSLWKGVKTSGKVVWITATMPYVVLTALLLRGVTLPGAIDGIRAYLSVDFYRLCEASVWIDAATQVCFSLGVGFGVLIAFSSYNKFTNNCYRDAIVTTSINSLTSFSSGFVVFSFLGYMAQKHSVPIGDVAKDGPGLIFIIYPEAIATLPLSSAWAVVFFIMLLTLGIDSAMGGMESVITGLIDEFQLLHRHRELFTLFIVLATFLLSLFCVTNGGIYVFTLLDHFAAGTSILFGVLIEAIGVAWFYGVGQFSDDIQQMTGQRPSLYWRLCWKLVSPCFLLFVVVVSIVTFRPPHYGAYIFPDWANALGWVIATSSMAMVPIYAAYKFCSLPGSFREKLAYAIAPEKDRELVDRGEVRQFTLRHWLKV

hSERT = hSERT (Homo sapiens, UniProt P31645); assay: Radioligand binding, SERT ([3H]citalopram); set-up: expressed in transfected cells; host or cells: HEK 293 (membrane preparation)
Sequence of hSERT (P31645 whole entry): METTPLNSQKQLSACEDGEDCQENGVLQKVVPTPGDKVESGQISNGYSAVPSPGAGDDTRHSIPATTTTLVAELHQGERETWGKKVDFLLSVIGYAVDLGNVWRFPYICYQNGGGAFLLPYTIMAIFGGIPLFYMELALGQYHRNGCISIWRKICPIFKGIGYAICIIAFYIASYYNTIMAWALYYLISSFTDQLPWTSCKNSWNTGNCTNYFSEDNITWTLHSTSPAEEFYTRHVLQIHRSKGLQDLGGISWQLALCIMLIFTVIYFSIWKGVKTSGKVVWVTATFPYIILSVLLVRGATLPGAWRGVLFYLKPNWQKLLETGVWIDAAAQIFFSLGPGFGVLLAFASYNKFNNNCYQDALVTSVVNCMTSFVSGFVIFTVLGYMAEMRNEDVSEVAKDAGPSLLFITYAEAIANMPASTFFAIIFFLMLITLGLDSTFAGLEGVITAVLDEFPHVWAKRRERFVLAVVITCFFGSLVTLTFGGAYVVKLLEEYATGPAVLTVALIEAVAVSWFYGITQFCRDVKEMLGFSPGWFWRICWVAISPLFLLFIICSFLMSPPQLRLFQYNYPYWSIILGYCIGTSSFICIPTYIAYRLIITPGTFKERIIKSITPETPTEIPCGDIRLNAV

| SMILES | EC50 (human 5-HT2B receptor) [µM] | Emax (human 5-HT2B receptor) [%] | EC50 (human TAAR1) [µM] | Ki (rat TAAR1) [µM] | Ki (dopaminergic D2 receptor) [µM] | Ki (hDAT) [µM] | Ki (hSERT) [µM] | Increase in 5-HT2B activation potency compared to 2C-O-21 (9) (human 5-HT2B receptor) [fold] | Higher 5-HT2B activation potency compared to TMA-2 (19) (human 5-HT2B receptor) [fold] | Higher rat TAAR1 affinity than TMA-2 (19) and MIPM (18) (rat TAAR1) [fold] |
| --- | --- | --- | --- | --- | --- | --- | --- | --- | --- | --- |
| CCOc1cc(OC)c(CCN)cc1OC [2C-O-2, 2,5-dimethoxy-4-ethoxyphenethylamine] | 0.049 ± 0.044 | 85 to 101 | 9.6 ± 6.34 | 0.34 ± 0.07 | > 4.8 | > 8.7 | > 8.6 |  |  |  |
| C=C(C)COc1cc(OC)c(CCN)cc1OC [2C-O-3, 2,5-dimethoxy-4-methallyloxyphenethylamine] | 0.068 ± 0.021 | 50 ± 22 | > 30 | 0.13 | > 4.8 | > 8.7 | > 8.6 |  |  |  |
| C=CCOc1cc(OC)c(CCN)cc1OC [2C-O-16, 4-allyloxy-2,5-dimethoxyphenethylamine] | 0.12 ± 0.07 | 42 ± 13 | > 30 | 0.26 ± 0.07 | > 4.8 | > 8.7 | > 8.6 |  |  |  |
| COc1cc(OCCF)c(OC)cc1CCN [2C-O-21, 2,5-dimethoxy-4-(2-fluoroethoxy)phenethylamine] | 0.9 ± 0.45 | 39 ± 26 | > 30 | 0.41 ± 0.04 | > 4.8 | > 8.7 | > 8.6 |  |  |  |
| COc1cc(OCC(F)F)c(OC)cc1CCN [2C-O-21.5, 4-(2,2-difluoroethoxy)-2,5-dimethoxyphenethylamine] | 0.48 ± 0.26 | 28 ± 23 | > 30 | 0.25 ± 0.02 | > 4.8 | > 8.7 | > 8.6 | 2 |  |  |
| COc1cc(OCC(F)(F)F)c(OC)cc1CCN [2C-O-22, 2,5-dimethoxy-4-(2,2,2-trifluoroethoxy)phenethylamine] | 0.25 ± 0.01 | 28 ± 20 | 3.6 ± 2.4 | 0.24 ± 0.06 | > 4.8 | > 8.7 | > 8.6 | 4 |  |  |
| COc1cc(OCc2ccccc2)c(OC)cc1CCN [2C-O-27, 4-benzyloxy-2,5-dimethoxyphenethylamine] | 0.48 ± 0.19 | 39 ± 16 | > 30 | 0.021 ± 0.003 | > 4.8 | 6.1 ± 0.4 | > 8.6 |  |  |  |
| C=CCOc1cc(OC)c(CC(C)N)cc1OC (centres unmarked) [MALM, 4-allyloxy-2,5-dimethoxyamphetamine] | 0.0095 ± 0.0033 | 85 to 101 | > 30 | 1.1 ± 0.2 | > 4.4 | > 8.7 | > 8.6 |  | 28 | 3 |
| COc1cc(OCC(F)F)c(OC)cc1CC(C)N (centres unmarked) [MDFEM, 4-(2,2-difluoroethoxy)-2,5-dimethoxyamphetamine] | 0.13 ± 0.08 | 21 ± 8 | > 30 | 1.2 ± 0.2 | > 4.8 | > 8.7 | > 8.6 |  |  |  |
| COc1cc(OCCF)c(OC)cc1CC(C)N (centres unmarked) [MFEM, 2,5-dimethoxy-4-(2-fluoroethoxy)amphetamine] | 0.27 ± 0.21 | 41 ± 22 | > 30 | 1.64 ± 0.3 | > 4.8 | > 8.7 | > 8.6 |  |  |  |
| COc1cc(OC(C)C)c(OC)cc1CC(C)N (centres unmarked) [MIPM, 2,5-dimethoxy-4-isopropoxyamphetamine] | 0.18 ± 0.12 | 20 ± 14 | > 30 | 2.9 ± 0.7 | > 4.8 | > 8.7 | > 8.6 |  | 2 |  |
| C=C(C)COc1cc(OC)c(CC(C)N)cc1OC (centres unmarked) [MMALM, 2,5-dimethoxy-4-methallyloxyamphetamine] | 0.029 ± 0.013 | 85 to 101 | > 30 | 0.63 ± 0.15 | > 4.8 | > 8.7 | > 8.6 |  | 9 | 5 |
| COc1cc(OCC(F)(F)F)c(OC)cc1CC(C)N (centres unmarked) [MTFEM, 2,5-dimethoxy-4-(2,2,2-trifluoroethoxy)amphetamine] | 0.2 ± 0.03 | 5 | > 30 | 1.3 ± 0.1 | > 4.8 | > 8.7 | > 8.6 |  |  |  |
